Source: US20250215029A1 (Recludix Pharma, Inc., priority 2022, published 2025)
Read-outs that look alike come from different tables or passages of the source.

What was measured:
[1] = biological target: T1, pY705-STAT3 in PBMC (Homo sapiens, UniProt P40763); experiment: MSD-pSTAT-PBMC Assay (pSTAT3, IL-6 stimulated); type: cell-based; conditions: compound 3 hrs, then 10 ng/mL IL-6 for 10 min, Table 115
T1 construct: Cryopreserved Peripheral Blood Mononuclear Cells (PBMC) are from AllCells; host or cells: cryopreserved PBMC
T1 sequence (P40763 whole entry): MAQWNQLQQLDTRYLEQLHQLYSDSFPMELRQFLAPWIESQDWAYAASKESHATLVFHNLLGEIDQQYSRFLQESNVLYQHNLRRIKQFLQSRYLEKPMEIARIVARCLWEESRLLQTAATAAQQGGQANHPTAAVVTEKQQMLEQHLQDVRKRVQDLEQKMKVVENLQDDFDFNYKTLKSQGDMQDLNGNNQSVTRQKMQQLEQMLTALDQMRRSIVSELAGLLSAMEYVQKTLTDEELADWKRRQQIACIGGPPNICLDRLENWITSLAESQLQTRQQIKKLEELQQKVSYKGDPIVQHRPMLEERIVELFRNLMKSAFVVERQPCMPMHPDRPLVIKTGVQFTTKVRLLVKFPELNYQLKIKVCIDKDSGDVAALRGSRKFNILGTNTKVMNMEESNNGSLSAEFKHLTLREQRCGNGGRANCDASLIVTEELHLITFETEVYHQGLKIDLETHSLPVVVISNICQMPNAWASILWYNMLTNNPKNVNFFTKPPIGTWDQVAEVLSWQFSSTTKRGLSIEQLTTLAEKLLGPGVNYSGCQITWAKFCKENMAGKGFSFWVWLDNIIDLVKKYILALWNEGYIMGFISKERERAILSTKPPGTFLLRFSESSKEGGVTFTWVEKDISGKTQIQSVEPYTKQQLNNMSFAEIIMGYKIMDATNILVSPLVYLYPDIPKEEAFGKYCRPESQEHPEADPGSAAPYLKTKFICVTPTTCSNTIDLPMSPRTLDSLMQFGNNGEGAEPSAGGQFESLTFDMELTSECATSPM
Summary of the method: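 pY705-STAT3 was detected electrochemiluminescently on total-STAT3 capture plates, using lysates of human PBMCs given compound for 3 h and then IL-6 (10 ng/mL, 10 min). Values were background-subtracted against unstimulated wells and set relative to DMSO. IC50 was fitted with variable slope.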

[2] = biological target: T2, pY641-STAT6 in PBMC (Homo sapiens, UniProt P42226); experiment: MSD-pSTAT-PBMC Assay (pSTAT6, IL-4 stimulated); type: cell-based; conditions: compound 3 hrs, then 1 ng/mL IL-4 for 10 min, Table 115
T2 construct: Cryopreserved Peripheral Blood Mononuclear Cells (PBMC) are from AllCells; host or cells: cryopreserved PBMC
T2 sequence (P42226 1-847): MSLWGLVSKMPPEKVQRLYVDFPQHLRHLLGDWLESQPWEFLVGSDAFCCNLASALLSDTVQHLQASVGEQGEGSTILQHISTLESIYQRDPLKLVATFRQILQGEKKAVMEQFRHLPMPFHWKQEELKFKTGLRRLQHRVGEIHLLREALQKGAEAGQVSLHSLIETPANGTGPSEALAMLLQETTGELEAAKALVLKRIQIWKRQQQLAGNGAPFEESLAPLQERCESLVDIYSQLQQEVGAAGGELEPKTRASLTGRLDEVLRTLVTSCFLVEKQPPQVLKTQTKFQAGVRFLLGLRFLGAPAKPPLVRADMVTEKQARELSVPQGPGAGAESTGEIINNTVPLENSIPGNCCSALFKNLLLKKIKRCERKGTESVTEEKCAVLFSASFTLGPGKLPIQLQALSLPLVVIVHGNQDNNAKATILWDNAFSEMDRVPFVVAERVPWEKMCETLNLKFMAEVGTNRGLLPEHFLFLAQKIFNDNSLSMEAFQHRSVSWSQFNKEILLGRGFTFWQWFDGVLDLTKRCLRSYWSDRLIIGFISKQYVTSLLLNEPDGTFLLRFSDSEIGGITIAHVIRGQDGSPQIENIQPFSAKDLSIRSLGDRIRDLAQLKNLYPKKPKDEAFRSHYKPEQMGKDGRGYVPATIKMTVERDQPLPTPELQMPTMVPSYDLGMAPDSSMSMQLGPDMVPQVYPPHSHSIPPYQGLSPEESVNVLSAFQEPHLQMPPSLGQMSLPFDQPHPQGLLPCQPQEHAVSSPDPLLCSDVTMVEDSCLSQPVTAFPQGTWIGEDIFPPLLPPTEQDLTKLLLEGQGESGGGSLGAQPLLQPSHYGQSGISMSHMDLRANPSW
Summary of the method: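 Thawed human PBMC rested overnight in IMDM/10% FBS, then got compound for 3 hrs before a 10 min cytokine pulse: 1 ng/mL IL-4 for pSTAT6, 10 ng/mL IL-6 for pSTAT3. Lysates went to MSD sandwich capture on total STAT6 or STAT3 with phospho-specific detection. IC50 came from background-subtracted, DMSO-normalized signal.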

IC50 ([2]; PBMC, read-out: STAT6) [µM] | SMILES | IC50 ([1]; PBMC, read-out: STAT3) [µM] | IC50 ([2]; STAT6, PBMC) [µM] | IC50 ([1]; STAT3, PBMC) [µM]
– | CCCOC(=O)[C@H](C)NP(=O)(Cc1ccc2sc(C(=O)N[C@H]3CCC[C@H]4CC[C@@H](C(=O)N5CC(c6cnccc6F)C5)N4C3=O)cc2c1)Oc1ccccc1 (stereo partly drawn) [Compound 304, propyl (((2-(((3S,6S,9aS)-3-(3-(4-fluoropyridin-3-yl)azetidine-1-carbonyl)-5-oxooctahydro-1H-pyrrolo[1,2-a]azepin-6-yl)carbamoyl)benzo [b]thiophen-5-yl)methyl)(phenoxy)phosphoryl)-L-alaninate] | < 0.1 | > 3 | –
– | CCCOC(=O)[C@H](C)NP(=O)(Oc1ccccc1)C(F)c1ccc2sc(C(=O)N[C@H]3CCCC[C@H]4CC[C@@H](C(=O)N5CCC(c6cccnc6)C5)N4C3=O)cc2c1 (stereo partly drawn) [Compound 320, propyl ((fluoro(2-(((3S,6S,10aS)-5-oxo-3-(3-(pyridin-3-yl)pyrrolidine-1-carbonyl)decahydropyrrolo[1,2-a]azocin-6-yl)carbamoyl)benzo [b]thiophen-5-yl)methyl)(phenoxy)phosphoryl)-L-alaninate] | < 0.1 | 0.1 to 1 | –
> 3 | CC(C)(C)C(=O)SCCOP(=O)(OCCSC(=O)C(C)(C)C)C(F)(F)c1ccc2sc(C(=O)N[C@H]3CCC[C@H]4CC[C@@H](C(=O)N5CC(c6cnccc6F)C5)N4C3=O)cc2c1 [Compound 324, S,S′-((((difluoro(2-(((3S,6S,9aS)-3-(3-(4-fluoropyridin-3-yl)azetidine-1-carbonyl)-5-oxooctahydro-1H-pyrrolo[1,2-a]azepin-6-yl)carbamoyl)benzo [b]thiophen-5-yl)methyl)phosphoryl)bis(oxy))bis(ethane-2,1-diyl)) bis(2,2-dimethyl-propanethioate)] | < 0.1 | – | –
– | CCCOC(=O)[C@H](C)NP(=O)(Oc1ccccc1)[C@@H](F)c1ccc2sc(C(=O)N[C@H]3CCCC[C@H]4CC[C@@H](C(=O)N5C[C@@H](c6ccccc6)[C@H](C#N)C56CC6)N4C3=O)cc2c1 (stereo partly drawn) [Compound 380, propyl (((R)-(2-(((3S,6S,10aS)-3-((6R,7S)-7-cyano-6-phenyl-4-azaspiro[2.4]heptane-4-carbonyl)-5-oxodecahydropyrrolo [1,2-a]azocin-6-yl)carbamoyl)benzo [b]thiophen-5-yl)fluoromethyl) (phenoxy)phosphoryl)-L-alaninate] | > 3 | < 0.1 | –
– | CCCOC(=O)[C@H](C)NP(=O)(Oc1ccccc1)[C@@H](F)c1ccc2sc(C(=O)N[C@H]3CCCC[C@H]4CC[C@@H](C(=O)N5C[C@H](c6ccccc6)[C@@H](C#N)C56CC6)N4C3=O)cc2c1 (stereo partly drawn) [Compound 381, propyl (((R)-(2-(((3S,6S,10aS)-3-((6S,7R)-7-cyano-6-phenyl-4-azaspiro[2.4]heptane-4-carbonyl)-5-oxodecahydropyrrolo [1,2-a]azocin-6-yl)carbamoyl)benzo [b]thiophen-5-yl)fluoromethyl) (phenoxy)phosphoryl)-L-alaninate] | > 3 | < 0.1 | –
– | CCCOC(=O)[C@H](C)NP(=O)(Oc1ccccc1)[C@@H](F)c1ccc2sc(C(=O)N[C@H]3CCC[C@H]4CC[C@@H](C(=O)N5C[C@@H](c6ccccc6)[C@H](C#N)C56CC6)N4C3=O)cc2c1 (stereo partly drawn) [Compound 382, propyl (((R)-(2-(((3S,6S,9aS)-3-((6R,7S)-7-cyano-6-phenyl-4-azaspiro[2.4]heptane-4-carbonyl)-5-oxooctahydro-1H-pyrrolo[1,2-a]azepin-6-yl)carbamoyl)benzo [b]thiophen-5-yl)fluoromethyl) (phenoxy)phosphoryl)-L-alaninate] | – | < 0.1 | > 3
– | CCCOC(=O)[C@H](C)NP(=O)(Oc1ccccc1)[C@H](F)c1ccc2sc(C(=O)N[C@H]3CCC[C@H]4CC[C@@H](C(=O)N5C[C@H](c6ccccc6)[C@@H](C#N)C56CC6)N4C3=O)cc2c1 (stereo partly drawn) [Compound 388, propyl (((S)-(2-(((3S,6S,9aS)-3-((6S,7R)-7-cyano-6-phenyl-4-azaspiro[2.4]heptane-4-carbonyl)-5-oxooctahydro-1H-pyrrolo[1,2-a]azepin-6-yl)carbamoyl)benzo [b]thiophen-5-yl)fluoromethyl) (phenoxy)phosphoryl)-L-alaninate] | – | < 0.1 | > 3
– | CCOC(=O)[C@H](C)NP(=O)(Cc1ccc2ccc(C(=O)N[C@H]3CCCC[C@H]4CC[C@@H](C(=O)N5CC(c6ccccc6)CC56CC6)N4C3=O)cc2c1)Oc1ccccc1 (stereo partly drawn) [Compound 396, ethyl (((7-(((3S,6S,10aS)-5-oxo-3-(6-phenyl-4-azaspiro[2.4]heptane-4-carbonyl)decahydropyrrolo[1,2-a]azocin-6-yl)carbamoyl)naphthalen-2-yl)methyl)(phenoxy)phosphoryl)-L-alaninate] | > 3 | 1 to 3 | –
– | C[C@H](NP(=O)(Cc1ccc2ccc(C(=O)N[C@H]3CCCC[C@H]4CC[C@@H](C(=O)N5CC(c6ccccc6)CC56CC6)N4C3=O)cc2c1)Oc1ccccc1)C(=O)OCc1ccccc1 (stereo partly drawn) [Compound 397, benzyl (((7-(((3S,6S,10aS)-5-oxo-3-(6-phenyl-4-azaspiro[2.4]heptane-4-carbonyl)decahydropyrrolo[1,2-a]azocin-6-yl)carbamoyl)naphthalen-2-yl)methyl)(phenoxy)phosphoryl)-L-alaninate] | > 3 | > 3 | –
– | CCCOC(=O)[C@H](C)NP(=O)(Cc1ccc2ccc(C(=O)N[C@H]3CCCC[C@H]4CC[C@@H](C(=O)N5C[C@H](c6cc[nH]c(=O)c6)CC56CC6)N4C3=O)cc2c1)Oc1ccccc1 (stereo partly drawn) [Compound 402, propyl (((7-(((3S,6S,10aS)-5-oxo-3-((S)-6-(2-oxo-1,2-dihydropyridin-4-yl)-4-azaspiro[2.4]heptane-4-carbonyl)decahydropyrrolo[1,2-a]azocin-6-yl)carbamoyl)naphthalen-2-yl)methyl)(phenoxy)phosphoryl)-L-alaninate] | > 3 | 1 to 3 | –
– | CCCOC(=O)[C@H](C)NP(=O)(Oc1ccccc1)C(F)(F)c1ccc2ccc(C(=O)N[C@H]3CCCC[C@H]4CC[C@@H](C(=O)N5CC(c6ccccc6)CC56CC6)N4C3=O)cc2c1 (stereo partly drawn) [Compound 403, propyl ((difluoro(7-(((3S,6S,10aS)-5-oxo-3-(6-phenyl-4-azaspiro[2.4]heptane-4-carbonyl)decahydropyrrolo[1,2-a]azocin-6-yl)carbamoyl)naphthalen-2-yl)methyl)(phenoxy)phosphoryl)-L-alaninate] | > 3 | 0.1 to 1 | –
– | CCC(CC)COC(=O)[C@H](C)NP(=O)(Cc1ccc2ccc(C(=O)N[C@H]3CCCC[C@H]4CC[C@@H](C(=O)N5CC(c6ccccc6)CC56CC6)N4C3=O)cc2c1)Oc1ccccc1 (stereo partly drawn) [Compound 404, 2-ethylbutyl (((7-(((3S,6S,10aS)-5-oxo-3-(6-phenyl-4-azaspiro[2.4]heptane-4-carbonyl)decahydropyrrolo[1,2-a]azocin-6-yl)carbamoyl)naphthalen-2-yl)methyl)(phenoxy)phosphoryl)-L-alaninate] | > 3 | 1 to 3 | –
– | CCCCOC(=O)[C@H](C)NP(=O)(Cc1ccc2ccc(C(=O)N[C@H]3CCCC[C@H]4CC[C@@H](C(=O)N5CC(c6ccccc6)CC56CC6)N4C3=O)cc2c1)Oc1ccccc1 (stereo partly drawn) [Compound 405, butyl (((7-(((3S,6S,10aS)-5-oxo-3-(6-phenyl-4-azaspiro[2.4]heptane-4-carbonyl)decahydropyrrolo[1,2-a]azocin-6-yl)carbamoyl)naphthalen-2-yl)methyl)(phenoxy)phosphoryl)-L-alaninate] | > 3 | 1 to 3 | –
